Source: US20190375708A1 (VenatoRx Pharmaceuticals, Inc., priority 2018, published 2019)

Key:
[1] = system: HBV replication in HepAD38 cells; experiment: Anti-HBV replication assay in HepAD38 cells (QPCR of extracellular HBV DNA); type: cell-based, HBV (genotype D, serotype ayw); conditions: Hepatitis B virus, 168 h, 7 days incubation, extracellular HBV DNA by QPCR, read-out: Anti-HBV EC50
Outline: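 Read-out is QPCR of HBV DNA released into culture supernatant, converted to percent of vehicle control and fitted to give EC50. Cells were HepAD38 induced by tetracycline removal and dosed […] for 7 days.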

[2] = In vitro cytotoxicity assay (MTT cell viability) in HepG2 cells; type: cell-based, human; conditions: human
Outline: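 Viability measured by MTT conversion, absorbance at 492 nm, as percent of vehicle-treated wells. Compounds spanned 30 μM to 1.0 nM in half-log steps over a 7-day exposure of parental HepG2 cells; CC50 derived by 4-parameter curve fit.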

SMILES | EC50 [1] [nM] | CC50 at 7 days [2] [nM]
Cc1noc([C@@H](C)NC(=O)C(=O)c2c(Cl)c(C(=O)Nc3cnc(F)c(C)c3)c3n2CCCC3)n1 [Example 522, (R)-2-chloro-N-(6-fluoro-5-methylpyridin-3-yl)-3-(2-((1-(3-methyl-1,2,4-oxadiazol-5-yl)ethyl)amino)-2-oxoacetyl)-5,6,7,8-tetrahydroindolizine-1-carboxamide] | > 1000 | > 30000
Cc1noc([C@H](C)NC(=O)C(=O)c2c(Cl)c(C(=O)Nc3ccc(F)c(Cl)c3)c3n2CCCC3)n1 [Example 523, (S)-2-chloro-N-(3-chloro-4-fluorophenyl)-3-(2-((1-(3-methyl-1,2,4-oxadiazol-5-yl)ethyl)amino)-2-oxoacetyl)-5,6,7,8-tetrahydroindolizine-1-carboxamide] | 50 to 499 | 5000 to 30000
Cc1noc([C@@H](C)NC(=O)C(=O)c2c(Cl)c(C(=O)Nc3ccc(F)c(Cl)c3)c3n2CCCC3)n1 [Example 524, (R)-2-chloro-N-(3-chloro-4-fluorophenyl)-3-(2-((1-(3-methyl-1,2,4-oxadiazol-5-yl)ethyl)amino)-2-oxoacetyl)-5,6,7,8-tetrahydroindolizine-1-carboxamide] | 50 to 499 | 5000 to 30000
Cc1cc(NC(=O)c2c(Cl)c(C(=O)C(=O)NCC(C)(C)CO)n3c2CCCC3)cnc1F [Example 525, 2-chloro-N-(6-fluoro-5-methylpyridin-3-yl)-3-(2-((3-hydroxy-2,2-dimethylpropyl)amino)-2-oxoacetyl)-5,6,7,8-tetrahydroindolizine-1-carboxamide] | > 1000 | > 30000
CC(C)(CO)CNC(=O)C(=O)c1c(Cl)c(C(=O)Nc2ccnc(F)c2)c2n1CCCC2 [Example 526, 2-chloro-N-(2-fluoropyridin-4-yl)-3-(2-((3-hydroxy-2,2-dimethylpropyl)amino)-2-oxoacetyl)-5,6,7,8-tetrahydroindolizine-1-carboxamide] | > 1000 | > 30000
CC(C)(CO)CNC(=O)C(=O)c1c(Cl)c(C(=O)Nc2ccc(F)c(Cl)c2)c2n1CCCC2 [Example 527, 2-chloro-N-(3-chloro-4-fluorophenyl)-3-(2-((3-hydroxy-2,2-dimethylpropyl)amino)-2-oxoacetyl)-5,6,7,8-tetrahydroindolizine-1-carboxamide] | 500 to 1000 | 500 to 4990
CC(C)(CO)CNC(=O)C(=O)c1c(Cl)c(C(=O)Nc2ccc(F)c(F)c2)c2n1CCCC2 [Example 528, 2-chloro-N-(3,4-difluorophenyl)-3-(2-((3-hydroxy-2,2-dimethylpropyl)amino)-2-oxoacetyl)-5,6,7,8-tetrahydroindolizine-1-carboxamide] | 500 to 1000 | 500 to 4990
Cc1cc(NC(=O)c2c(Cl)c(C(=O)C(=O)NCC(C)(C)O)n3c2CCCC3)cnc1F [Example 529, 2-chloro-N-(6-fluoro-5-methylpyridin-3-yl)-3-(2-((2-hydroxy-2-methylpropyl)amino)-2-oxoacetyl)-5,6,7,8-tetrahydroindolizine-1-carboxamide] | > 1000 | > 30000
CC(C)(O)CNC(=O)C(=O)c1c(Cl)c(C(=O)Nc2ccnc(F)c2)c2n1CCCC2 [Example 530, 2-chloro-N-(22-fluoropyridin-4-yl)-3-(22-((2-hydroxy-2-methylpropyl)amino)-2-oxoacetyl)-5,6,7,8-tetrahydroindolizine-1-carboxamide] | > 1000 | > 30000
O=C(N[C@H]1C[C@H](O)C1)C(=O)c1c(Cl)c(C(=O)Nc2ccc(F)c(Cl)c2)c2n1CCCC2 [Example 531, 2-chloro-N-(3-chloro-4-fluorophenyl)-3-(2-(((1r,3r)-3-hydroxycyclobutyl)amino)-2-oxoacetyl)-5,6,7,8-tetrahydroindolizine-1-carboxamide] | 50 to 499 | > 30000
CC(C)(O)CNC(=O)C(=O)c1c(Cl)c(C(=O)Nc2ccc(F)c(Cl)c2)c2n1CCCC2 [Example 532, 2-chloro-N-(3-chloro-4-fluorophenyl)-3-(2-((2-hydroxy-2-methylpropyl)amino)-2-oxoacetyl)-5,6,7,8-tetrahydroindolizine-1-carboxamide] | 500 to 1000 | 500 to 4990
O=C(N[C@H]1C[C@H](O)C1)C(=O)c1c(Cl)c(C(=O)Nc2ccc(F)c(F)c2)c2n1CCCC2 [Example 533, 2-chloro-N-(3,4-difluorophenyl)-3-(2-(((1r,3r)-3-hydroxycyclobutyl)amino)-2-oxoacetyl)-5,6,7,8-tetrahydroindolizine-1-carboxamide] | 500 to 1000 | > 30000
CC(C)(O)CNC(=O)C(=O)c1c(Cl)c(C(=O)Nc2ccc(F)c(F)c2)c2n1CCCC2 [Example 534, 2-chloro-N-(3,4-difluorophenyl)-3-(2-((2-hydroxy-2-methylpropyl)amino)-2-oxoacetyl)-5,6,7,8-tetrahydroindolizine--1 carboxamide] | 50 to 499 | 5000 to 30000
CC(C)(C)NC(=O)C(=O)c1cc(C(=O)Nc2ccc(F)c(Cl)c2)c2n1CCC2 [Example 535, 5-(2-(tert-butylamino)-2-oxoacetyl)-N-(3-chloro-4-fluorophenyl)-2,3-dihydro-1H-pyrrolizine-7-carboxamide] | < 50 | 500 to 4990
Cc1cc(NC(=O)c2cc(C(=O)C(=O)NC(C)(C)C)n3c2CCC3)ccc1F [Example 536, 5-(2-(tert-butylamino)-2-oxoacetyl)-N-(4-fluoro-3-methylphenyl)-2,3-dihydro-1H-pyrrolizine-7-carboxamide] | < 50 | > 30000
Cc1cc(NC(=O)c2cc(C(=O)C(=O)NC(C)(C)CO)n3c2CCC3)ccc1F [Example 537, N-(4-fluoro-3-methylphenyl)-5-(2-((1-hydroxy-2-methylpropan-2-yl)amino)-2-oxoacetyl)-2,3-dihydro-1H-pyrrolizine-7-carboxamide] | 50 to 499 | > 30000
Cc1cc(NC(=O)c2c(Cl)c(C(=O)C(=O)NC(C)(C)C)n3c2CCC3)ccc1F [Example 539, 5-(2-(tert-butylamino)-2-oxoacetyl)-6-chloro-N-(4-fluoro-3-methylphenyl)-2,3-dihydro-1H-pyrrolizine-7-carboxamide] | < 50 | 5000 to 30000
Cc1cc(NC(=O)c2c(Cl)c(C(=O)C(=O)NC(C)(C)CO)n3c2CCC3)ccc1F [Example 540, 6-chloro-N-(4-fluoro-3-methylphenyl)-5-(2-((1-hydroxy-2-methylpropan-2-yl)amino)-2-oxoacetyl)-2,3-dihydro-1H-pyrrolizine-7-carboxamide] | < 50 | > 30000
Cc1cc(NC(=O)c2c(Cl)c(C(=O)C(=O)NC3(CO)CCC3)n3c2CCC3)ccc1F [Example 541, 6-chloro-N-(4-fluoro-3-methylphenyl)-5-(2-((1-(hydroxymethyl)cyclobutyl)amino)-2-oxoacetyl)-2,3-dihydro-1H-pyrrolizine-7-carboxamide] | < 50 | > 30000
Cc1cc(NC(=O)c2c(Cl)c(C(=O)C(=O)NC3(CO)CC3)n3c2CCC3)ccc1F [Example 542, 6-chloro-N-(4-fluoro-3-methylphenyl)-5-(2-((1-(hydroxymethyl)cyclopropyl)amino)-2-oxoacetyl)-2,3-dihydro-1H-pyrrolizine-7-carboxamide] | < 50 | > 30000
